From patent US20230241024A1, “METHODS OF TREATING METABOLIC DISORDERS” (Sunovion Pharmaceuticals Inc., priority 2021, published 2023)

What was measured:
[1] = tested on: male db/db mice; assay: Acute oral glucose tolerance test (OGTT), plasma glucose and insulin, diabetic db/db mice (Example 1.2)
Description: (§1) A vehicle control group was included in the study design. […] Blood samples were taken at various timepoints during the test and subsequently assessed for plasma glucose and insulin content.
Mice were weighed on the day of arrival (Thursday) and group housed in polypropylene cages on a normal phase 12 h light-dark cycle (lights on 07:00). Cages contained sawdust, red house, red tunnel, Sizzlenest and nestlet at a temperature of 24±2° C. Upon arrival, mice were weighed and given wet mash to aid recovery from transport. Mice were weighed the following day and on the Monday of the following week.
Experimental Procedures: Animals underwent a three-day handling phase, which commenced five days after arrival. On the final day of handling the mice were dosed orally once with vehicle. At the start of the handling phase, animals were weighed (to the nearest 0.1 g using an electronic top-pan balance) and allocated into 6, weight matched treatment groups by a Statistician. On the day of baseline dosing, mice were fasted for approximately 16 hours to a timed schedule, beginning at 16:45. The mice were placed into individual clean cages with access to water, but not food. The following morning the mice were moved to a separate room which was maintained with the same environmental conditions and underwent an OGTT. […] Five minutes later, the mice in groups A, C, D, E and F were dosed by the oral route (30 minutes pre-glucose). […] All mice were given an oral glucose load of D-glucose at a dose of 2.0 g/kg (400 mg/mL solution; dose volume 5 mL/kg). Further blood samples (30 µl) were taken 3 minutes before glucose administration (B2) and at 15 (20 µl), 30 (20 µl), 60 (25 µl) and 120 (25 µl) minutes post glucose administration. All blood samples were collected into lithium heparinised tubes (Sarstedt Microvette CB300LH) and plasma separated by centrifugation to produce a single aliquot of plasma which was frozen (-80° C.) and subsequently assayed for glucose (Thermoelectron infinity glucose reagent, TR15421) and insulin (Alpco mouse ultrasensitive insulin kit 80 INSMSU-E10).
Upon completion of the OGTT, all animals were humanely killed by a Schedule 1 method (exposure to a rising concentration of CO2 with confirmation of death by cervical dislocation). A terminal blood sample was taken from groups A, C, D, E and F only by cardiac puncture into a lithium heparin-coated tube (Sarstedt CB300LH) and the plasma separated by centrifugation. A single plasma aliquot (approximately 100 µl) was stored frozen prior to shipment of the compound to Charles River Laboratories, USA.

[2] = tested on: lean male C57BL/6J mice; assay: Acute oral glucose tolerance test (OGTT), plasma glucose and insulin, lean mice (Example 1.1); parameters: Plasma glucose AUC Mean: dose or concentration left out as unconfirmed
Description: as §1
Mice were weighed on the day of arrival (Thursday) and singly housed upon arrival and throughout the study in polypropylene cages on a normal phase 12 h light-dark cycle (lights on 07:00). Cages contained sawdust, red acrylic house, red acrylic tunnel, sizzlenest and nestlet at a temperature of 21±4° C. Upon arrival, mice were weighed and given wet mash to aid recovery from transport. Mice were weighed the following day and on the Monday of the following week.
Experimental Procedures: Animals underwent a three-day handling phase, which commenced five days after arrival. On the final day of handling the mice were dosed orally once with vehicle. At the start of the handling phase, animals were weighed (to the nearest 0.1 g using an electronic top-pan balance) and allocated into 6 weight-matched treatment groups by a Statistician. On the day of baseline dosing, mice were fasted for approximately 16 hours to a timed schedule, beginning at 16:45. The mice were placed into individual clean cages with access to water, but not food. The following morning the mice were moved to a separate room which was maintained with the same environmental conditions and underwent an OGTT. […] Five minutes later, the mice in groups A, C, D, E and F were dosed by the oral route (30 minutes pre-glucose). […] All mice were given an oral glucose load of D-glucose at a dose of 2.0 g/kg (400 mg/mL solution; dose volume 5 mL/kg). Further blood samples (30 µl) were taken 3 minutes before glucose administration (B2) and at 15 (20 µl), 30 (20 µl), 60 (25 µl) and 120 (25 µl) minutes post glucose administration. All blood samples were collected into lithium heparinised tubes (Sarstedt Microvette CB300LH) and plasma separated by centrifugation to produce a single aliquot of plasma which was frozen (-80° C.) and subsequently assayed for glucose (Thermoelectron infinity glucose reagent, TR15421) and insulin (Alpco mouse ultrasensitive insulin kit 80 INSMSU-E10).
Upon completion of the OGTT, all animals were humanely killed by a Schedule 1 method (exposure to a rising concentration of CO2 with confirmation of death by cervical dislocation). A terminal blood sample was taken from groups A, C, D, E and F only by cardiac puncture into a lithium heparin-coated tube (Sarstedt CB300LH) and the plasma separated by centrifugation.

[3] = tested on: lean, fasted, male CD1 mice; assay: Acute intravenous glucose tolerance test (IVGTT), plasma glucose and insulin (Example 6)
Description: as §1
Via a lateral tail vein, a baseline blood sample (B1; 30 µl) was taken from all animals prior to vehicle or drug treatment. Five minutes later, mice were dosed with Treatment 1 detailed by the oral route (see above table; approx. 30 minutes pre-glucose). Thirty minutes later, mice were dosed with Treatment 2 by the intravenous route (by a lateral tail vein). […] A B2 sample (30 µl) was also taken briefly before glucose administration. All blood samples (from the tail vein) were collected into lithium heparinised tubes (Sarstedt Microvette CB300LH) and plasma separated by centrifugation to produce a single aliquot of plasma which was frozen (approx. -80° C.) and subsequently assayed for glucose (Thermoelectron infinity glucose reagent, TR15421) and insulin (Alpco Ultrasensitive mouse insulin ELISA) as single replicates.

[4] = 15 minutes, Exendin-4 300 µg/kg ip
[5] = 30 minutes, Exendin-4 300 µg/kg ip
[6] = 60 minutes, Exendin-4 300 µg/kg ip
[7] = 120 minutes, Exendin-4 300 µg/kg ip
[8] = AUC above baseline (0-60 minutes), Exendin-4 300 µg/kg ip
[9] = AUC above baseline (0-120 minutes), Exendin-4 300 µg/kg ip
[10] = Area under curve (0-60 minutes), Exendin-4 300 µg/kg ip
[11] = Area under curve (0-60 minutes), Exendin-4 300 µpg/kg ip
[12] = Area under curve (0-120 minutes), Exendin-4 300 µg/kg ip
[13] = Area under curve (0–120 minutes), Exendin-4 300 µg/kg ip
[14] = Post-treatment baseline (B2), Exendin-4 300 µg/kg ip
[15] = 15 minutes, Exendin-4 1 µg/kg ip
[16] = 30 minutes, Exendin-4 1 µg/kg ip
[17] = 60 minutes, Exendin-4 1 µg/kg ip
[18] = 120 minutes, Exendin-4 1 µg/kg ip
[19] = AUC above baseline (0-60 minutes), Exendin-4 1 µg/kg ip
[20] = AUC above baseline (0-120 minutes), Exendin-4 1 µg/kg ip
[21] = Area under curve (0-60 minutes), Exendin-4 1 µg/kg ip
[22] = Area under curve (0-120 minutes), Exendin-4 1 µg/kg ip
[23] = Area under curve (0-120 minutes), Exendin-4 ip
[24] = Post-treatment baseline (B2), Exendin-4 1 µg/kg ip
[25] = 40 µg/kg iv group, Post-treatment baseline (B2)
[26] = 40 µg/kg iv with Glucose 1 g/kg
[27] = 40 µg/kg iv with Glucose 1 g/kg, 5 minutes
[28] = 40 µg/kg iv with Glucose 1 g/kg, 10 minutes
[29] = 40 µg/kg iv with Glucose 1 g/kg, 30 minutes
[30] = 40 µg/kg iv with Glucose 1 g/kg, 60 minutes

## Exendin-4: GLP 1 receptor agonist utilised as a positive control
[1]; [4]
  Plasma glucose % of vehicle: 39.5%
  Plasma glucose Mean: 20.37 mM
  Plasma insulin % of vehicle: 176.4%
  Plasma insulin Mean: 11.33 ng/mL
[1]; [5]
  Plasma glucose % of vehicle: 34.7%
  Plasma glucose Mean: 19.07 mM
  Plasma insulin % of vehicle: 228.5%
  Plasma insulin Mean: 9.42 ng/mL
[1]; [6]
  Plasma glucose % of vehicle: 32.9%
  Plasma glucose Mean: 12.91 mM
  Plasma insulin % of vehicle: 210.5%
  Plasma insulin Mean: 8.95 ng/mL
[1]; [7]
  Plasma glucose % of vehicle: 52.4%
  Plasma glucose Mean: 10.71 mM
  Plasma insulin % of vehicle: 238.7%
  Plasma insulin Mean: 9.87 ng/mL
[1]; [8]
  Plasma glucose AUC above baseline Difference from vehicle: -28.49 mM·h
  Plasma glucose AUC above baseline Mean: -1.09 mM·h
  Plasma insulin AUC above baseline Difference from vehicle: -0.08 ng·h/mL
  Plasma insulin AUC above baseline Mean: 0.89 ng·h/mL
[1]; [9]
  Plasma glucose AUC above baseline Difference from vehicle: -47.99 mM·h
  Plasma glucose AUC above baseline Mean: -8.04 mM·h
  Plasma insulin AUC above baseline Difference from vehicle: -0.35 ng·h/mL
  Plasma insulin AUC above baseline Mean: 0.98 ng·h/mL
[1]; [10]
  Plasma insulin AUC % of vehicle: 213.0%
  Plasma insulin AUC Mean: 9.93 ng·h/mL
[1]; [11]
  Plasma glucose AUC % of vehicle: 38.8%
  Plasma glucose AUC Mean: 17.77 mM·h
[1]; [12]
  Plasma insulin AUC % of vehicle: 223.1%
  Plasma insulin AUC Mean: 19.34 ng·h/mL
[1]; [13]
  Plasma glucose AUC % of vehicle: 39.6%
  Plasma glucose AUC Mean: 30.22 mM·h
[1]; Exendin-4 300 µg/kg ip, all timepoints post-glucose
  plasma glucose vs vehicle: statistically significant (p<0.001) reduction
[1]; [14]
  Plasma glucose Mean: 17.81 mM
  Plasma insulin % of vehicle: 227.2%
  Plasma insulin Mean: 8.99 ng/mL
[2]; [15]
  Plasma glucose % of vehicle: 65.9%
  Plasma glucose Mean: 15.13 mM
  Plasma insulin % of vehicle: 154.4%
  Plasma insulin Mean: 1.92 ng/mL
[2]; [16]
  Plasma glucose % of vehicle: 53.3%
  Plasma glucose Mean: 12.81 mM
  Plasma insulin % of vehicle: 110.3%
  Plasma insulin Mean: 1.10 ng/mL
[2]; [17]
  Plasma glucose % of vehicle: 58.4%
  Plasma glucose Mean: 8.56 mM
  Plasma insulin % of vehicle: 73.1%
  Plasma insulin Mean: 0.37 ng/mL
[2]; [18]
  Plasma glucose % of vehicle: 74.8%
  Plasma glucose Mean: 7.46 mM
  Plasma insulin % of vehicle: 63.5%
  Plasma insulin Mean: 0.27 ng/mL
[2]; [19]
  Plasma glucose AUCB2 Difference from vehicle: -8.32 mM·h
  Plasma glucose AUCB2 Mean: 1.49 mM·h
  Plasma insulin AUC above baseline Difference from vehicle: 0.02 ng·h/mL
  Plasma insulin AUC above baseline Mean: 0.72 ng·h/mL
[2]; [20]
  Plasma glucose AUCB2 Difference from vehicle: -12.99 mM·h
  Plasma glucose AUCB2 Mean: -0.58 mM·h
  Plasma insulin AUC above baseline Difference from vehicle: -0.28 ng·h/mL
  Plasma insulin AUC above baseline Mean: 0.76 ng·h/mL
[2]; [21]
  Plasma glucose AUC % of vehicle: 61.5%
  Plasma insulin AUC % of vehicle: 125.7%
  Plasma insulin AUC Mean: 1.06 ng·h/mL
[2]; [22]
  Plasma insulin AUC % of vehicle: 110.9%
  Plasma insulin AUC Mean: 1.48 ng·h/mL
[2]; [23]
  Plasma glucose AUC % of vehicle: 63.6%
  Plasma glucose AUC Mean: 20.44 mM·h
[2]; Exendin-4 1 µg/kg ip 10 minutes before glucose load, all timepoints post-glucose
  plasma glucose vs vehicle: statistically significant (p<0.01) reduction
[2]; [24]
  Plasma glucose % of vehicle: 111.4%
  Plasma glucose Mean: 10.66 mM
  Plasma insulin % of vehicle: 221.2%
  Plasma insulin Mean: 0.34 ng/mL
[3]; [25]
  Plasma glucose % of vehicle: 98.6%
  Plasma glucose Mean: 9.30 mM
  Plasma insulin % of vehicle: 95.1%
  Plasma insulin Mean: 0.17 ng/mL
[3]; [26]
  Plasma glucose - AUC above baseline (AUCB2) (0-60 minutes), Mean: 3.22 mM·h
  Plasma glucose AUC (0-60 minutes), % of vehicle: 73.5%
  Plasma glucose AUC, Area under curve (0-60 minutes), Mean: 12.65 mM·h
  Plasma glucose AUCB2 (0-60 minutes), Difference from vehicle: -4.43 mM·h
  Plasma insulin - AUC above baseline (AUCB2) (0-60 minutes), Mean: 0.73 ng·h/mL
  Plasma insulin - Area under curve AUC (0-60 minutes), Mean: 0.93 ng·h/mL
  Plasma insulin AUC (0-60 minutes), % of vehicle: 218.8%
  Plasma insulin AUCB2 (0-60 minutes), Difference from vehicle: 0.48 ng·h/mL
[3]; [27]
  Plasma glucose % of vehicle: 92.6%
  Plasma glucose Mean: 28.43 mM
  Plasma insulin % of vehicle: 347.3%
  Plasma insulin Mean: 1.99 ng/mL
[3]; [28]
  Plasma glucose % of vehicle: 89.4%
  Plasma glucose Mean: 22.15 mM
  Plasma insulin % of vehicle: 327.2%
  Plasma insulin Mean: 1.84 ng/mL
[3]; [29]
  Plasma glucose % of vehicle: 59.0%
  Plasma glucose Mean: 8.35 mM
  Plasma insulin % of vehicle: 149.8%
  Plasma insulin Mean: 0.57 ng/mL
[3]; [30]
  Plasma glucose % of vehicle: 57.8%
  Plasma glucose Mean: 6.36 mM
  Plasma insulin % of vehicle: 117.2%
  Plasma insulin Mean: 0.42 ng/mL
[3]; Exendin-4 40 µg/kg iv, 5, 10 and 30 minutes post glucose load
  plasma insulin vs vehicle: statistically significant increase
[3]; Exendin-4 40 µg/kg iv, 5 minutes post glucose load
  Plasma insulin peak: 1.99 ng/mL
